Data set [1] relates to β-catenin-initiated mouse breast tumor cell lines.
In data set [2] the test system is F16-resistant normal mammary epithelial and human cancer cell lines. Put plainly: F16 accumulation in the presence of MDR-1 and MRP1 inhibitors. It is filed as cell-based. As to conditions: 3 μM F16 with 50 μM verapamil/1 mM probenecid. An excerpt: To evaluate the effect of multi-drug resistance pumps on the F16-insensitive cells, inhibitors of MDR-1 and MRP1 were utilized (Lizardet al. (1994) Cell Biol Toxicol (10) 399-406).

Data set [3] relates to EpH4-EV and EpH4-A6 cells. Put plainly: superoxide levels by dihydroethidium flow cytometry. It is filed as cell-based, mouse. As to conditions: 3 μM F16, FIG. 11. An excerpt:
Besides ATP synthesis, the mitochondria plays different roles in cell physiology, among them control of the redox state of cells. Changes in the level of superoxide anion as an indicator of alterations in reactive oxygen intermediates generation by mitochondria of cells treated with F16 was examined by flow cytometry. Changes in the levels of intracellular oxidants were investigated using the fluorescent probe dihydroethidium (DHE) (Molecular Probes). Superoxide anion can oxidate DHE to ethidium bromide (EtBr) which binds to DNA. […] EpH4-EV and EpH4-A6 cells were grown in the absence or in the presence of 3 μM F16 for 15, 24, 48 and 72 hr. cells were resuspended and diluted to 10^6 cells/mL. DHE was added to the cell suspension to a final 2 μM in each case. Cells were incubated at 37° C. for 15 min and immediately analysed using flow cytometry.
(In general: Flow cytometry measures light scatter and fluorescence of single cells or particles in a stream.)

The next data set has as its system EpH4-A6 cells. As to the kind of experiment: ATP levels (ATP Bioluminescence Assay). It is filed as cell-based, mouse. As to conditions: 3 μM F16, 24 hr, FIG. 10. On the procedure: One of the major roles of mitochondria is to supply energy to the cell. To assess alterations in mitochondrial function, ATP levels were determined in F16-treated cells by the luciferase-catalyzed ATP-dependent bioluminescent oxidation of luciferin using the ATP Bioluminescence Assay Kit (Roche). EpH4-EV and EpH4-A6 cells were grown in the absence or in the presence of 3 μM F16 for 15 hr and 24 hr. As a control A6 were treated with 5 μM FCCP (Sigma). Cells were then harvested, counted and equivalent numbers used for each determination, according to manufacturer's procedure. Each determination was done in triplicate, and the entire experiment was performed twice.

Another data set has as its system MDA-MB-436. Put plainly: cell count proliferation assay. Further details: key: +: A positive scoring in these Tables represent cells in which a 2-5 and a 10-40 fold reduction in the total number of cells relative to the control untreated cells was observed after 3 and 7 days of culture with F16, respectively. It is filed as cell-based. As to conditions: MDA-MB-436, human breast; F16 3 μM, cells counted after 3 and 7 days. An excerpt: (§1) The following panel of mouse tumor cell lines derived from Neu, Ras and Myc transgenic mice and panel of human cancer cell lines were used: a) Neu-initiated mouse tumor cell lines NF980, NF324-2A, NF324-1B, SMF, NAF, Neu4145, n-Neu, Ras-initiated mouse tumor cell lines SH1,1, AC236, AC711, AC816, ACp53^−#1, ACp53^−4782, AC222, AC99, AC260, ACp53^−#19, ACp53^−#16, AC/Balb6.6, AC/Balb14, AC/Balb12 and Myc-initiated mouse tumor cell lines 16MB9a, 13MA1a; and b) human breast tumor cell lines MDA-MB231, MDA-MB435, MDA-MB436, MDA-MB453, MDA-MB-468, SKBR-3, MCF-7, T47D, ZR75; human prostate cancer cell lines LNCaP, PC-3, DU145 and the human ovarian cancer cell line SKOV-3.
(§2) For each cell line, 10^5 cells were seeded in 4×6 well plates. Next day, F16 was added at 3 μM to the medium of 2 of the plates, while the other two were left untreated (control). Cells were counted 3 days and 7 days after initiation of treatment.
(§3) A positive scoring in these Tables represent cells in which a 2-5 and a 10-40 fold reduction in the total number of cells relative to the control untreated cells was observed after 3 and 7 days of culture with F16, respectively.

The next data set relates to MCF-7. Put plainly: cell count proliferation assay. It is filed as cell-based. Further details: key: +: A positive scoring in these Tables represent cells in which a 2-5 and a 10-40 fold reduction in the total number of cells relative to the control untreated cells was observed after 3 and 7 days of culture with F16, respectively. As to conditions: MCF-7, human breast; F16 3 μM, cells counted after 3 and 7 days.
Description: as §1, §2, §3

The next data set has as its system MDA-MB-453. As to the kind of experiment: cell count proliferation assay. It is filed as cell-based. Further details: key: +: A positive scoring in these Tables represent cells in which a 2-5 and a 10-40 fold reduction in the total number of cells relative to the control untreated cells was observed after 3 and 7 days of culture with F16, respectively. As to conditions: MDA-MB-453, human breast; F16 3 μM, cells counted after 3 and 7 days.
Description: as §1, §2, §3

The subject of another data set is MDA-MB-468. As to the kind of experiment: cell count proliferation assay. It is filed as cell-based. More on the design: key: +: A positive scoring in these Tables represent cells in which a 2-5 and a 10-40 fold reduction in the total number of cells relative to the control untreated cells was observed after 3 and 7 days of culture with F16, respectively. As to conditions: MDA-MB-468, human breast; F16 3 μM, cells counted after 3 and 7 days.
Description: as §1, §2, §3

The subject of a further data set is SKBR-3. Put plainly: cell count proliferation assay. It is filed as cell-based. Further details: key: +: A positive scoring in these Tables represent cells in which a 2-5 and a 10-40 fold reduction in the total number of cells relative to the control untreated cells was observed after 3 and 7 days of culture with F16, respectively. As to conditions: SKBR-3, human breast; F16 3 μM, cells counted after 3 and 7 days.
Description: as §1, §2, §3

For another data set, the system named is T47D. Put plainly: cell count proliferation assay. It is filed as cell-based. More on the design: key: +: A positive scoring in these Tables represent cells in which a 2-5 and a 10-40 fold reduction in the total number of cells relative to the control untreated cells was observed after 3 and 7 days of culture with F16, respectively. As to conditions: human breast, F16 3 μM, cells counted after 3 and 7 days.
Description: as §1, §2, §3

Data set [4] has as its system kidney, heart and liver samples. As to the kind of experiment: pathology examination of kidney, liver and heart. It is filed as in vivo, mouse. Particulars: four F16 treated and four placebo mice. An excerpt: All the tumors from the twenty mice as well as kidney, liver and heart samples from four placebo and four F16 treated mice were sent for pathology examination. […] Necrosis probably results from the lack of sufficient blood supply to these fast growing tumors.

`C[n+]1ccc(/C=C/c2c[nH]c3ccccc23)cc1.[I-]` [F16]: the “selectivity for β-catenin-initiated mouse breast tumor cell lines” value in data set [1] is recorded as “to some extent selectivity”. In addition, the “F16 mitochondrial accumulation with MDR-1/MRP1 inhibitors” value in [2] was “did not result in F16 mitochondrial accumulation”. Besides, the “superoxide level (ethidium/DNA fluorescence)” value in data set [3] was “increase in the ethidium/DNA fluorescence”. In addition, the ATP pool result in the data set on EpH4-A6 cells is reported as “significant depletion in the ATP pool”. For the same compound, the F16 response entry with MDA-MB-436, in the data set on MCF-7, in the data set on MDA-MB-453, in the data set on MDA-MB-468, with SKBR-3 and in the data set on T47D was “+” each time. In addition, in data set [4], the “pathology of kidney, heart and liver samples versus placebo” value is “no major differences”.
